Laboratory results as given in ChEMBL document CHEMBL3407446, “Effect of new hybrids based on 5,16-pregnadiene scaffold linked to an anti-inflammatory drug on the growth of a human astrocytoma cell line (U373)” (Eur J Med Chem, 2015).
The source made the active and inactive calls. No cut-off for these calls is given here.

Experiments:
[1] = test system: U-373MG ATCC; test: Antiproliferative activity against human U373MG cells assessed as effect on cell number at 1 nM to 10 uM incubated for 1 to 6 days by trypan blue dye exclusion dye based inverted microscopy; type: functional
[2] = test system: U-373MG ATCC; test: Induction of cell proliferation of human U373MG cells at 1 nM and 10 nM incubated for 1 to 6 days by trypan blue dye exclusion dye based inverted microscopy; type: functional
[3] = Antiproliferative activity against human U373MG cells assessed reduction in cell number at 10 uM incubated for 6 days by trypan blue dye exclusion dye based inverted microscopy; type: functional, U-373MG ATCC; settings: U373 MG, 144 h
[4] = test system: U-373MG ATCC; test: Antiproliferative activity against human U373MG cells assessed reduction in cell number at 1 nM and 10 uM incubated for 1 to 6 days by trypan blue dye exclusion dye based inverted microscopy; type: functional
[5] = test system: U-373MG ATCC; test: Antiproliferative activity against human U373MG cells assessed reduction in cell number at 1 nM and 5 uM incubated for 1 to 6 days by trypan blue dye exclusion dye based inverted microscopy; type: functional
[6] = test system: U-373MG ATCC; test: Antiproliferative activity against human U373MG cells assessed reduction in cell number at 10 uM incubated for 1 to 6 days by trypan blue dye exclusion dye based inverted microscopy; type: functional
[7] = test system: U-373MG ATCC; test: Antiproliferative activity against human U373MG cells assessed reduction in cell number at 1 nM and 10 nM incubated for 1 to 6 days by trypan blue dye exclusion dye based inverted microscopy; type: functional

Row | SMILES | Activity [1] | IC50 [3] | further results
1 | CC(C)Cc1ccc(C(C)C(=O)O)cc1 (stereo not drawn) | inactive |  | 
2 | COc1ccc2cc([C@@H](C)C(=O)O[C@@H]3C=C4C(=O)C[C@@H]5[C@H](CC[C@]6(C)C(C(C)=O)=CC[C@@H]56)[C@@]4(C)CC3)ccc2c1 | Active | 17.7 µM | Activity [2]: Active; Activity [4]: Active
3 | COc1ccc2cc([C@H](C)C(=O)O)ccc2c1 | inactive |  | 
4 | CC(=O)C1=CC[C@H]2[C@@H]3CC(=O)C4=C[C@@H](O)CC[C@]4(C)[C@H]3CC[C@]12C |  | 3.02 µM | Activity [5]: Active
5 | CC(=O)C1=CC[C@H]2[C@@H]3CC(=O)C4=C[C@@H](OC(=O)[C@H](C)c5ccc(CC(C)C)cc5)CC[C@]4(C)[C@H]3CC[C@]12C | Active |  | Activity [6]: Active
6 | COc1ccc2c(c1)c(CC(=O)O[C@@H]1C=C3C(=O)C[C@@H]4[C@H](CC[C@]5(C)C(C(C)=O)=CC[C@@H]45)[C@@]3(C)CC1)c(C)n2C(=O)c1ccc(Cl)cc1 | Active | 0.016 µM | Activity [6]: Active
7 | COc1ccc2c(c1)c(CC(=O)O)c(C)n2C(=O)c1ccc(Cl)cc1 | inactive |  | 
8 | CC(=O)C1=CC[C@H]2[C@@H]3CC(=O)C4=C[C@@H](OC(=O)[C@H](C)c5cccc(C(=O)c6ccccc6)c5)CC[C@]4(C)[C@H]3CC[C@]12C | inactive |  | 
9 | CC1=C(CC(=O)O)c2cc(F)ccc2/C1=C\c1ccc([S+](C)[O-])cc1 (stereo not drawn) | Active |  | Activity [7]: Active
10 | CC(C(=O)O)c1cccc(C(=O)c2ccccc2)c1 (stereo not drawn) | inactive |  | 
